Source: ChEMBL document CHEMBL1127588, “A structure-activity relationship study of benzylic modifications of 4-[1-(1-naphthyl)ethyl]-1H-imidazoles on alpha 1- and alpha 2-adrenergic receptors” (J Med Chem, 1994)

How the values were obtained:
[1] = molecular target: T1, Adrenergic receptor alpha-1 (Homo sapiens, UniProt P35348+P25100+P35368); assay: Tested for its inhibitory activity against alpha-1 adrenoceptor in guinea pig ileum; assay type: tissue-based, Cavia porcellus; conditions: target entry is the homologue from another species
T1 sequence (P35348 whole entry): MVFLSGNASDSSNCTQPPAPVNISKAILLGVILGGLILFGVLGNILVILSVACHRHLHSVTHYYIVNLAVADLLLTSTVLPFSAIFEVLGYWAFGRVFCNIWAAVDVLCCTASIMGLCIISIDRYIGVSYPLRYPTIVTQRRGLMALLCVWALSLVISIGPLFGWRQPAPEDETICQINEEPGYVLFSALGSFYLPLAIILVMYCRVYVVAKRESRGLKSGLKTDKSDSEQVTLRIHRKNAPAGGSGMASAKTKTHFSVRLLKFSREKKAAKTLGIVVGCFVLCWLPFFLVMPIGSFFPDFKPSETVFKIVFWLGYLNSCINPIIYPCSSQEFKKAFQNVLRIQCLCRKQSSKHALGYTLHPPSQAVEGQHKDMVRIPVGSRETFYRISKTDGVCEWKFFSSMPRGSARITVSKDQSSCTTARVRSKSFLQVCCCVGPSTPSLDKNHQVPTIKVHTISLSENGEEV
T1 sequence (P25100 whole entry): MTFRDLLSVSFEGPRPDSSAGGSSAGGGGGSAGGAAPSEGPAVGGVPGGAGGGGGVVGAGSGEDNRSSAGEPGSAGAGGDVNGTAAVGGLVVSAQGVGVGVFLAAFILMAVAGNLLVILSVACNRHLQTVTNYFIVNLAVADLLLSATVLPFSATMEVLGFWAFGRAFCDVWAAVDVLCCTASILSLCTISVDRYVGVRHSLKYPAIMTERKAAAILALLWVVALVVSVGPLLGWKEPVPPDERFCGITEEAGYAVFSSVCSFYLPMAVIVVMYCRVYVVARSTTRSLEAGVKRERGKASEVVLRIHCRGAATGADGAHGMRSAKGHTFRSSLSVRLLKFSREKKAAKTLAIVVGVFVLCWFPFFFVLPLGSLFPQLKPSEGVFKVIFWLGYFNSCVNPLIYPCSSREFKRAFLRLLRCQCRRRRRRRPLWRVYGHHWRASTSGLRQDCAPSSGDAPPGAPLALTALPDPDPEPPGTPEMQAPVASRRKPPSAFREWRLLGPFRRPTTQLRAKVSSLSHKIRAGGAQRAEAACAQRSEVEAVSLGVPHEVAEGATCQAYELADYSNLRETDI
T1 sequence (P35368 whole entry): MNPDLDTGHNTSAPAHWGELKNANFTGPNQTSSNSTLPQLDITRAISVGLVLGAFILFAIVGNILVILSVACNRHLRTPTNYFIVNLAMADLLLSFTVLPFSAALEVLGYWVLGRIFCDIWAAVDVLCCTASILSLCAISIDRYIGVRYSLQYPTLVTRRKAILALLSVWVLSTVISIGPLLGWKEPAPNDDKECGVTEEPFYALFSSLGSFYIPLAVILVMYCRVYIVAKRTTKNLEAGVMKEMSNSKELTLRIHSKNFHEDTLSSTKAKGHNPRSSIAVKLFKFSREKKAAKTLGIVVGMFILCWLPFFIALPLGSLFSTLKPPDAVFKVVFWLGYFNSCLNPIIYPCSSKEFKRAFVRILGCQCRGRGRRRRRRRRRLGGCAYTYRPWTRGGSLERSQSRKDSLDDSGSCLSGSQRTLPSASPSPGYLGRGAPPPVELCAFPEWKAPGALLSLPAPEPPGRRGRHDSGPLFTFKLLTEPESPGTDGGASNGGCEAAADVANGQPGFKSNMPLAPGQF

[2] = molecular target: T2, Adrenergic receptor alpha-2 (Rattus norvegicus, UniProt P22086+P19328+P22909); assay: Tested for its binding affinity against alpha-2 receptor in rat brain membrane; assay type: cell membranes
T2 sequence (P22086 whole entry): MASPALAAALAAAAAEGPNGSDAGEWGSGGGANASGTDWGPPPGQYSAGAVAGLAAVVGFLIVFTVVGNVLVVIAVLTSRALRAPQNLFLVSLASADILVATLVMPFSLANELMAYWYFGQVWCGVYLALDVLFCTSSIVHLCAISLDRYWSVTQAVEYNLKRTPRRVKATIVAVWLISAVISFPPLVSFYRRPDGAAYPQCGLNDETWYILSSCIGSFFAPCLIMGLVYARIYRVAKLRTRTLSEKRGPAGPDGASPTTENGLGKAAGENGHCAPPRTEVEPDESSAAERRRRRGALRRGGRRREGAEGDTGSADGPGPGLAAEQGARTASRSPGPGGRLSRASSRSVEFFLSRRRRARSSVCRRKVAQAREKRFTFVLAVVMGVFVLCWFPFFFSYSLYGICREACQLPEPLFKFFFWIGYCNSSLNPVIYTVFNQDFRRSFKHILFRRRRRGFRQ
T2 sequence (P19328 whole entry): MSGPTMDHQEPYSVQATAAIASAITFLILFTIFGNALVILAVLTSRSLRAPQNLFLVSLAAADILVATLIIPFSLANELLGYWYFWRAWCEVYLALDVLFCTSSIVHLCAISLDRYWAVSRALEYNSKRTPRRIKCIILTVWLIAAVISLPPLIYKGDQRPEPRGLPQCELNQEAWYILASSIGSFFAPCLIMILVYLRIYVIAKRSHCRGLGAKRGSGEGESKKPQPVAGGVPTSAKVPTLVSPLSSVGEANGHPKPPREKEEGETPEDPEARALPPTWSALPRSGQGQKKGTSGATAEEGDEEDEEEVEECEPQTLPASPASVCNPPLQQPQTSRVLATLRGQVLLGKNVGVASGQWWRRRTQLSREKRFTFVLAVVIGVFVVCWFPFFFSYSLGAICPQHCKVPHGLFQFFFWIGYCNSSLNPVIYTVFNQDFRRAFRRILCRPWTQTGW
T2 sequence (P22909 whole entry): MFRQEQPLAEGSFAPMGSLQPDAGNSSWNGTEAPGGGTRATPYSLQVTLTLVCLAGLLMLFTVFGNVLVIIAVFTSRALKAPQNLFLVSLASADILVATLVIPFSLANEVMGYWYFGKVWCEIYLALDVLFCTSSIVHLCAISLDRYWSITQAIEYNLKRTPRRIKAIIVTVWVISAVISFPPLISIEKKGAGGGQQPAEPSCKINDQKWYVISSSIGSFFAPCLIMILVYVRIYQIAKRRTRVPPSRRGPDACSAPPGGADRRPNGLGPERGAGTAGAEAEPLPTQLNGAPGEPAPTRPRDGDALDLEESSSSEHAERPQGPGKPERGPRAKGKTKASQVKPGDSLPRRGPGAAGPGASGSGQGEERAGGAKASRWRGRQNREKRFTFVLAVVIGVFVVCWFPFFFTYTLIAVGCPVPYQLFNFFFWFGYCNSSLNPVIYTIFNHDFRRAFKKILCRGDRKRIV

Row | Compound | EC50 [1] [µM] | Ki [2] [µM]
1 | CC(c1c[nH]cn1)c1cccc2ccccc12 (stereo in doubt; S-(+)-2) | 8.273 | 0.011
2 | Cl.c1ccc2c(Cc3c[nH]cn3)cccc2c1 | 2.113 | 0.068
3 | CC(c1c[nH]cn1)c1cccc2ccccc12 (stereo in doubt; S-(-)-2) | 10.814 | 0.024
4 | CC(c1c[nH]cn1)c1cccc2ccccc12 (stereo in doubt; 2) | 5.793 | 0.017
5 | COC(c1c[nH]cn1)c1cccc2ccccc12.Cl (stereo not drawn) |  | 8.582
6 | Cc1cccc(C(C)c2c[nH]cn2)c1C (stereo not drawn) [MEDETOMIDINE] | 1.165 | 0.019
7 | Cl.OC(c1c[nH]cn1)c1cccc2ccccc12 (stereo not drawn) | 12.692 | 8.81
